Consider 7 compounds from patent publication US12485127B2, “Compositions and methods for treatment and prevention of actinic keratosis using copper chlorin” (CHL Industries, LLC, priority 2024, dated 2025).

Where two headings read alike, the source gives them in different places.

For data set [1], the system named is HPV-11 (HE611260.1 strain). Kind of data set: HPV-11 replicon assay (NanoLuc reporter) in C-33 A cells. It counts as cell-based, human papillomavirus. Conditions: for EC90 / EC50: host cell line C-33A; for EC50: 48 hours post transfection. Here is the method:
(§1) The in vitro testing of the chlorin compounds and the positive control for antiviral cytopathic effect (CPE) was conducted through The National Institute of Allergy and Infectious Diseases (NIAID) NCEA Program. The in vitro testing was done by the method described by Beadle J R, Valiaeva N, Yang G, Yu J H, Broker T R, Aldern K A, et al. Synthesis and Antiviral Evaluation of Octadecyloxyethyl Benzyl 9-[(2-Phosphonomethoxy)ethyl]guanine (ODE-Bn-PMEG), a Potent Inhibitor of Transient HPV DNA Amplification. J Med Chem. 2016; 59(23):10470-8. PubMed PMID: 27933957. This method uses an HPV-11 replicon assay. The replicon (pMP619) is transfected into C-33 A cells grown as monolayers in 384-well plates. At 48 hours post transfection, the enzymatic activity of the destabilized NanoLuc reporter is assessed with NanoGlo reagent. […] The host C-33 A cells are epithelial cells originally isolated from the cervix of a uterine cancer patient. For reasons previously mentioned in this application, in vitro testing of compounds for potential antiviral activity against HPV strains cannot use human keratinocytes as the host cells due to the variable HPV replication activity with this cell line.
The control compound, PMEG, has a molecular weight of 289.188 g/mol. The molecular weight of the copper chlorin compounds evaluated are (1) 661.5 g/mol for disodium copper isochlorin e4; (2) 710.5 g/mol for trisodium copper chlorin p6; (3) 724.15 g/mol for trisodium copper chlorin e6; and (4) 740 g/mol for trisodium copper rhodin g7. The antiviral test results in Table 1 for each treatment composition and the control are reported in micromoles (uM) for the EC50, EC90, and CC50. The SI 50 and SI 90 are calculated from the EC50, EC90, and CC50 data.
(§2) The EC50 (or Effective Concentration 50) is the concentration of the test compound in micromoles that reduces virus replication by 50%. The EC90 (or Effective Concentration 90) is the concentration of the test compound in micromoles that reduces virus replication by 90%. CC50 (or Cytotoxic Concentration 50) is the concentration of the test compound in micromoles that reduces the cell viability of the virus host cell by 50%. The SI50 (or Selectivity Index 50) is a measure of both safety and efficacy or therapeutic index and is calculated by dividing the CC50 by the EC50. The SI90 (Selectivity Index 90) is calculated by dividing the CC50 by the EC90.

The target of data set [2] is Human neonatal epidermal keratinocytes (HEKn). The experiment in a line: Transcriptome study (Clariom S) of gene regulation in keratinocytes. It counts as cell-based. Particulars: 20 ug/mL; 24-hour exposure; versus water control. Here is the method:
The transcriptome study of copper chlorins was conducted by Sunny Biodiscovery laboratory and Thermo-Fisher Scientific Microarray Research Services Laboratory, both of Santa Clara, California to determine gene regulatory activity and biomarkers associated with activity of the copper chlorins on human skin by assessing gene expression from keratinocyte culture after 24-hour exposure of each of the copper chlorins as previously detailed in U.S. Provisional Application Ser. No. 63/233,229 (filed on Aug. 14, 2021).
Human neonatal epidermal keratinocytes (HEKn) were obtained from Cell Applications 5 (San Diego, CA) and were plated in a 96 well plate (Bioland Scientific, Paramount, CA, item #701003 made of high clarity polystyrene) with keratinocyte growth media (Human EpiVita Serum-Free Growth Medium for Neonatal Cells; Cell Applications, San Diego, CA). Cells were mixed with growth media at a rate of 10,000 cells per 200 μl (approximately 10^4 cells per well) and added to the 96 wells (0.2 mL/well) and incubated overnight at 37° C.
Following the overnight incubation of keratinocytes, each of the 4 copper chlorins evaluated was separately dissolved in sterile distilled water at a concentration of 20 mg/mL. Dissolution occurs at 20-25° C. with slight agitation for 1-2 minutes until no solid particles were visible. This stock solution of 20 mg/mL was then further diluted with sterile water to a concentration of 500 μg/mL. The 500 μg/mL solution of each test copper chlorin was added to the cells in the growth media at a ratio of 1:20 (test solution: cells & media) and incubated in the wells for 24 hours at 37° C.
The following day the test solution and growth media were removed from the wells and the cells were rinsed with phosphate-buffered saline (PBS). The RNA from the cells treated with each of the test compounds was extracted and purified with a RNeasy Mini Plus Kit (Catalogue #74134; Qiagen, Germantown, MD) with automated lysing and homogenization using a Qiacube Connect robotic station (Qiagen, Germantown, MD). The protocol for RNA extraction is selected on the Qiacube Connect automated station and cell samples, labware, and reagents are loaded as instructed. Cells are first lysed and homogenized in highly denaturing guanidine-isothiocyanate-containing Buffer RLT Plus, which immediately inactivates RNases to ensure isolation of intact RNA. The lysate is passed through Qiacube Connect loaded gDNA Eliminator spin columns, 15 ethanol is added to the flow-through, and the samples are then applied to Qiacube preloaded RNeasy MinElute spin columns. RNA binds to the membrane and contaminants are washed away. High quality RNA is eluted and collected in a total of 30 μL sterile distilled water.
The stepwise procedure for production of RNA using RNeasy Plus procedure is outlined FIG. 4. Once collected, the purity of the RNA is assessed with the NanoDrop Lite spectrophotometer (Thermo Fisher Scientific, Waltham, MA) at 260 nm and 280 nm. The NanoDrop Lite unit is a small, stand-alone UV spectrophotometer that is designed 5 to measure microvolumes (1-2 μL) of nucleic acid and protein samples. Purity of the collected RNA was verified by adding 1 μL of the collected RNA to the NanoDrop Lite unit, selecting the RNA application on the NanoDrop Lite Home screen and following the stepwise measuring procedure as detailed in the NanoDrop Lite Manual.
The extracted RNA for each of the four treatment compositions evaluated from the above procedure was then transported on dry ice to a laboratory specializing in transcriptome analysis (Thermo Fisher Scientific Microarray Research Services Laboratory, Santa Clara, CA). The transcriptome profiling of the RNA samples was conducted using the Clariom S GeneChip® Pico Assay platform. […]

Another data set relates to C-33 A cells. Kind of data set: Cytotoxicity to virus host cell (CC50). It counts as cell-based, human.
Data set [3] concerns HPV-18 (strain: KC470230.1). Kind of data set: HPV-18 genome plasmid replication assay in C-33 A cells. It counts as cell-based, human papillomavirus. Particulars: for EC50 / EC90: host cell line C-33A. Here is the method: as §1, §2
(§3) The in vitro test method used to assess activity of copper chlorins according to embodiments herein against HPV-18 and HPV-31 used the same replication and quantification method described previously for Table 1 results but with HPV-18 and HPV-31 genome plasmids. Results of the in vitro testing of three of the same copper chlorins as used in Table 1, as well as the same control, against HPV 18 and HPV 31 are summarized in Table 2 and Table 3 below.

The subject of data set [4] is HPV-31 (strain: HQ53768.1). Kind of data set: HPV-31 genome plasmid replication assay in C-33 A cells. It counts as cell-based, human papillomavirus. Conditions: for EC50 / EC90: host cell line C-33A. How it is done:
as §1, §2, §3

The test system of the next data set is actinic keratosis. Conditions: cited from earlier work.
The nature of data set [5]: Cytotoxicity to virus host cell (CC50). It counts as cell-based, human. Particulars: human, C-33A host cells.
Data set [6] deals with HPV-11 (HE611260.1 strain). Conditions: HPV-11 replicon assay; reference range; read-out: EC50 value range of the reference compound for this assay; cited from earlier work. On the technique in general: In antiviral work, replicon cells carry a viral genome segment that copies itself.

As a reminder, the EC90 is the point of the concentration-response curve where the effect stands at 90%. Low readings indicate an effect from little substance, high ones a need for much substance. In general, EC50 refers to the midpoint of the concentration-response curve. The CC50 is the concentration at which the toxic effect on the cells reaches its halfway point. A high value points to lower toxicity to the cells. In data set [1], `C=Cc1c(C)c2cc3nc(c(C(=O)[O-])c4[n-]c(cc5nc(cc1[n-]2)C(C)=C5CC)c(C)c4C(=O)[O-])C(CCC(=O)[O-])C3C.[Cu+2].[Na+].[Na+].[Na+]` (centres unmarked) [Trisodium copper chlorin p6] yielded an EC90 of 23.6 µM and an EC50 of 5.51 µM. For the same compound, in data set [2], the “KDM7A lysine (K)-specific demethylase 7A gene regulation (keratinocytes)” value is recorded as “+2.38 fold” and the “UNC5B Unc-5 netrin receptor B gene regulation (keratinocytes)” value was “+3.59 fold”. This compound yielded a CC50 in the data set on C-33 A cells of 58.4 µM.

As to `C=Cc1c(C)c2cc3nc(c(CC(=O)[O-])c4[n-]c(cc5nc(cc1[n-]2)C(C)=C5CC)c(C)c4C(=O)[O-])C(CCC(=O)[O-])C3C.[Cu+2].[Na+].[Na+].[Na+]` (centres unmarked) [Trisodium copper chlorin e6], in data set [3], the EC50 worked out at 1.42 µM and the EC90 stood at 2.97 µM. Further, the “EC50 converted from micromoles” value in data set [1] (converted with molecular weight 724.15) turned out to be 1.998 µg/mL. Moreover, in data set [1], the EC90 turned out to be 24.9 µM and the EC50 is 2.76 µM. Also, in data set [2], the “CDKN1A cyclin-dependent kinase inhibitor 1A (p21, Cip1) gene regulation (keratinocytes)” value is “+2.22 fold”; the “CYB561 Cytochrome b561 gene regulation (keratinocytes)” value was −2.28 fold; the “EPGN Epithelial mitogen gene regulation (keratinocytes)” value is −2.56 fold; the “MAPK14 Mitogen-activated protein kinase 14 gene regulation (keratinocytes)” value is −2.23 fold. In addition, in data set [4], the “antiviral activity classification based on SI50” value is listed as “moderately active (SI50=10−49, moderately active)”; the midpoint of the response, the EC50, lay at 1.75 µM; the EC90 was 3.8 µM.

Consider Disodium copper isochlorin e4, for which, in data set [3], the EC50 worked out at 3.2 µM and the 90% effect level (EC90) was put at 6.09 µM. In data set [1], this compound displayed an EC90 of 20.6 µM and an EC50 of 4.63 µM. In data set [2], the “CDKN1A cyclin-dependent kinase inhibitor 1A (p21, Cip1) gene regulation (keratinocytes)” value is reported as “+2.46 fold”; the “EPGN Epithelial mitogen gene regulation (keratinocytes)” value is −3.17 fold; the “KDM7A lysine (K)-specific demethylase 7A gene regulation (keratinocytes)” value is reported as “+2.62 fold”; the “UNC5B Unc-5 netrin receptor B gene regulation (keratinocytes)” value is reported as “+8.06 fold”. Further, in data set [4], the EC50 stood at 0.25 µM and the EC90 turned out to be 4.45 µM.

In the case of `O=C(Cc1ccc(-c2ccc(OCCN3CCOCC3)cc2)cn1)NCc1ccccc1` [turbanibulin], the sustained complete clearance in the data set on actinic keratosis (after one year, estimated) was about 27%. Also, in the data set with actinic keratosis (trial 1 vs trial 2), the Initial complete clearance is listed as 44-54%.

With `Nc1nc2c(ncn2CCOCP(=O)(O)O)c(=O)[nH]1` [9-[2-(phosphono-methoxy)-ethyl]guanine, reference compound], the EC50 in data set [3] (Human papillomavirus) is 2.33 µM; in data set [1] (Human papillomavirus), 2.27 µM; in data set [4] (Human papillomavirus) it was 3.92 µM; in data set [6], 2 to 9.2 µM. Further, the values for the EC90 in data set [3] (Human papillomavirus), in data set [1] (Human papillomavirus) and in data set [4] (Human papillomavirus) were 21.3 µM, over 150 µM and 18.4 µM, respectively. Besides, the CC50 in data set [5] (HPV-11 test (Table 1)) was over 150 µM; in data set [5] (HPV-18 test (Table 2)) it was over 250 µM; in data set [5] (HPV-31 test (Table 3)), over 250 µM.

Consider `O=C(O)Cc1ccccc1Nc1c(Cl)cccc1Cl` [diclofenac], for which the AK recurrence rate in the data set on actinic keratosis (after 12 months from initial treatments) is listed as 85%.

For the compound Trisodium copper rhodin g7, the “antiviral activity classification based on SI50” value in data set [3] is given as “highly active (SI50>50 highly active)”. In addition, the EC50 was determined as 1.19 µM in data set [3], 4.48 µM in data set [1] and 0.36 µM in data set [4]. For the same compound, the EC90 in data set [3] worked out at 2.62 µM; in data set [1], 58.8 µM; in data set [4] it was 1.62 µM.
